US8217001B2, “Modification of feeding behavior” (Imperial Innovations Limited, priority 2001, dated 2012)
Like-named read-outs stand apart in the source and are kept apart here.

Columns and labels:
POMC neurons = experiment: Whole cell recordings of membrane potential, currents and action potentials in EGFP-labeled POMC neurons of hypothalamic (ARC) slices; assay type: cell-based, mouse
[1] = Food intake after injection into the arcuate nucleus of fasted rats; assay type: in vivo, rat; settings: rats fasted 24 hours
Method: (§1) Arcuate and paraventricular nuclei cannulations and injections were performed as previously described (Glaum et al., Mol. Pharmacol. 50, 230-5, 1996; Lee et al., J. Physiol (Lond) 515, 439-52; 1999; Shiraishi et al., Nutrition 15, 576-9, 1999). Correct intranuclear cannula placement was confirmed histologically at the end of each study period (Glaum et al., Mol. Pharmacol. 50, 230-5, 1996; Lee et al., J. Physiol (Lond) 515, 439-52, 1999; Shiraishi et al., Nutrition 15, 576-9, 1999). All animal procedures were approved under the British Home Office Animals (Scientific Procedures) Act, 1986. All injection studies on fasting animals were performed in the early light-phase (0800-0900). All dark-phase feeding studies injections were performed just prior to lights off.

[2] = test system: GABAergic IPSCs onto POMC neurons; experiment: GABAergic inhibitory postsynaptic currents (IPSCs) recorded in POMC neurons of hypothalamic slices; assay type: cell-based, mouse
[3] = Food intake after injection into the paraventricular nucleus (PVN) of fasted rats; assay type: in vivo, rat
Method: as §1, with “Animals: Male Wistar rats (200-250 g), 7-8 weeks old (Charles River Laboratories, United Kingdom) were maintained under controlled temperature (21-23° C.) and light conditions (lights on 07:00-19:00) with ad libitum access to water and food (RM1 diet; SDS Ltd., Witham, United Kingdom) except where stated. Arcuate” for “Arcuate”

[4] = test system: NPY and α-MSH release from hypothalamic explants; experiment: Neuropeptide release from hypothalamic explants (RIA); assay type: cell-based, rat; settings: 50 nM
Method: Hypothalamic explants: Male Wistar rats were killed by decapitation and the whole brain immediately removed, mounted with the ventral surface uppermost and placed in a vibrating microtome (Biorad, Microfield Scientific Ltd., Devon, UK). A 1.7 mm slice was taken from the base of the brain to include the PVN and the ARC and immediately transferred to 1 ml of artificial CSF (aCSF) (Kim et al., J. Clin. Invest. 105, 1005-11, 2000) equilibrated with 95% O2 and 5% CO2 and maintained at 37° C. After an initial 2-hour equilibration period, with aCSF replaced every 60 minutes, the hypothalami were then incubated for 45 minutes in 600 μl aCSF (basal period) before being exposed to the Y2A […] in 600 μl aCSF. Finally, the viability of the tissue was verified by a 45 minute exposure to 56 mM KCL; isotonicity was maintained by substituting K^+ for Na^+.

NPY Y1 receptor = NPY Y1 receptor (Homo sapiens, UniProt P25929); experiment: biochemical; assay type: binding
NPY Y5 receptor = target: T1, NPY Y5 receptor (Homo sapiens, UniProt Q15761); experiment: Receptor-binding studies on cell lines expressing NPY Y5 receptor
T1 construct: host or cells: unnamed cell line expressing the receptor
T1 sequence (Q15761 1-445): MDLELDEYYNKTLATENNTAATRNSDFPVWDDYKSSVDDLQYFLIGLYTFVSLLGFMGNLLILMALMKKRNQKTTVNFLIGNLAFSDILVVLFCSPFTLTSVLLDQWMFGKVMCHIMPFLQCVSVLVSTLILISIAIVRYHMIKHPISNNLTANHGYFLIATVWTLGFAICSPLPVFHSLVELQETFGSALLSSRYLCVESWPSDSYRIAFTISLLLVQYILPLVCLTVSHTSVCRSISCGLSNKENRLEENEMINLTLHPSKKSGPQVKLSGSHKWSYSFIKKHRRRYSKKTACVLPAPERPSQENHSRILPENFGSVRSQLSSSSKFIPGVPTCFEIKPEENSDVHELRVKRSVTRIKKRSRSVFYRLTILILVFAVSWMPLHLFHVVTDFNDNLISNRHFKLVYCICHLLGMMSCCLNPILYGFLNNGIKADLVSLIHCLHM

NPY Y2 receptor = target: T2, NPY Y2 receptor (Homo sapiens, UniProt P49146); experiment: Receptor-binding studies on cell lines expressing NPY Y2 receptor
T2 construct: host or cells: unnamed cell line expressing the receptor
T2 sequence (P49146 1-381): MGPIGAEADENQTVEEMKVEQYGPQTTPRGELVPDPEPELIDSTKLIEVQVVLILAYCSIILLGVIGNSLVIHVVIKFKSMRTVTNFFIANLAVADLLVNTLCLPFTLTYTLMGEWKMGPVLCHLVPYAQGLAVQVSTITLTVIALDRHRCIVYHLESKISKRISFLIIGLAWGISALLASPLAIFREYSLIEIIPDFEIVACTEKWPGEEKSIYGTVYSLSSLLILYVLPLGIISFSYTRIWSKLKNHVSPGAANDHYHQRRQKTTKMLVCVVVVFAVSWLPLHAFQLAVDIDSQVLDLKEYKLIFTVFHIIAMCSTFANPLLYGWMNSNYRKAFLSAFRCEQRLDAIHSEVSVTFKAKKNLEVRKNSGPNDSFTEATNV

[5] = test system: non-POMC neurons in the arcuate nucleus; experiment: Recordings from non-fluorescent (non-POMC) neurons in the arcuate nucleus; assay type: cell-based, mouse; settings: 13 cells tested; hyperpolarized 5, depolarized 3

Chain of NPY Y1 receptor (P25929 whole entry): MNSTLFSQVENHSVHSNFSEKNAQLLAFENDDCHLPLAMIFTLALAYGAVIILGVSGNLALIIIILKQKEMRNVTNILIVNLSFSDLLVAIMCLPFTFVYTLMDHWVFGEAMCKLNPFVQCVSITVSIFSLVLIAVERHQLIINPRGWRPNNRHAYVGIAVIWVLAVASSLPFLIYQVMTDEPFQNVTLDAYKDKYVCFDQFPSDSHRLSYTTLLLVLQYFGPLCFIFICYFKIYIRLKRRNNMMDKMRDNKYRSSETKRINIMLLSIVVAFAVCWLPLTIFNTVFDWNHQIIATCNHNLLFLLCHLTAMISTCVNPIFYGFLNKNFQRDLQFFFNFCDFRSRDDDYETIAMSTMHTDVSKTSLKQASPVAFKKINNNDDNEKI

## Ac-LRHYLNLLTRQRY-NH2 (C-terminus assumed) [Y2A, N-acetyl (Leu^28, Leu^31) NPY (24-36)]
POMC neurons; whole cell, PYY3-36 n=22, Y2A n=9
  depolarization of POMC neurons: 8.7±1.8 mV
[1]; 100 fmol-1 nmol
  food intake after intra-arcuate injection, dose dependence: inhibited food intake
[1]; intra-arcuate, 0.1 μmol, n=8
  chow ingested 2 hours post-injection: 6.2 ± 0.5 g
[2]
  reduction of frequency of IPSCs onto POMC neurons: 44.4±9.3%
[3]; 100 fmol-1 nmol, rats fasted 24 hours
  food intake after PVN injection: no alteration of food intake
[3]; PVN, 0.1 nmol, n=8
  food intake 2 hour post-injection: 8.0 ± 0.6 g
[4]; 45 minutes (FIG. 8e)
  α-MSH release from hypothalamic explants: concomitant increase in α-MSH release
[4]; 45 minutes (FIG. 8d)
  NPY release from hypothalamic explants: significantly decreased NPY release

## CTAP
POMC neurons
  effect on the current induced by Met-Enk in POMC cells: completely prevented the current induced by Met-Enk

## picrotoxin
[2]; 100 μM
  effect on IPSCs: blocked all IPSCs

## NC1=N[C@H](O)[C@H]2[C@H]3O[C@]4(O)O[C@@H]([C@@H](O)[C@@]2(N1)[C@@H]4O)[C@]3(O)CO [TTX, tetrodotoxin]
[2]
  effect on large amplitude IPSCs: abolished large IPSCs

## met-enkephalin
POMC neurons; 30 μM
  spontaneous action potential generation: prevented spontaneous action potential generation
  time to hyperpolarization (rapid): 35 to 40 s
POMC neurons; 6.5 mM K+ Krebs, n=3
  reversal-potential of the inwardly-rectifying opioid current: approximately −60 mV

## Ac-LRHYLNLLTRQRY-NH2 [Y2A, N-acetyl (Leu^28, Leu^31) NPY (24-36)]
NPY Y1 receptor
  IC50: > 5000 nM
NPY Y5 receptor
  IC50: > 5000 nM
NPY Y2 receptor
  IC50: 1.3 ± 0.2 nM

## NPY
[2]
  IPSCs in the presence of tetrodotoxin (TTX): still inhibited IPSCs
  decrease of frequency of GABAergic IPSCs: 55%
[2]; 100 nM
  time to decrease of IPSC frequency: ≤ 3 min

## D-Trp^8-γMSH
POMC neurons; 7 nM
  frequency of action potentials: decreased the frequency of action potentials

B1: leptin: leptin applied to identified POMC cells in slice preparations (protein, UniProt P41160 22-167, looked up)
Leptin: VPIQKVQDDTKTLIKTIVTRINDISHTQSVSAKQRVTGLDFIPGLHPILSLSKMDQTLAVYQQVLTSLPSQNVLQIANDLENLRDLLHLLAFSKSCSLPQTSGLQKPESLDGVLEASLYSTEVVALSRLQGSLQDILQQLDVSPEC
POMC neurons; 100 nM
  reversal of the small inward current: approximately −20 mV
POMC neurons; 100 nM, n=45
  mean±SEM depolarization: 9.7±1.2 mV
POMC neurons; 0.1-100 nM
  time to depolarization: 2 to 10 min
POMC neurons; 0.1-100 nM, 72 of 77 cells
  depolarization of POMC cells: 3-30 mV
POMC neurons; read-out: EC50 of concentration dependent depolarization of POMC cells
  EC50: 5.9 nM
[2]
  IPSCs in the presence of tetrodotoxin (TTX): still inhibited IPSCs
[2]; 100 nM (leptin: 5 out of 15 cells; NPY: all 12 cells)
  decrease of frequency of GABAergic IPSCs: 25%
[5]
  effect on adjacent non-fluorescent ARC cells: no effect on 5 of 13 adjacent non-fluorescent cells tested
